Test system: Hydrilla verticillata
Test: Greenhouse container test, static exposure of Hydrilla verticillata in water columns
Type: in vivo
Conditions: for Hydrilla Shoot Length: static exposure, 11 WAT, control 30.4 cm
Method: To begin the experiment, PVC cylinders were filled and maintained with a volume of 4000 ml of dechlorinated water that was maintained at room temperature (24° C.). To each cylinder, an established Hydrilla verticillata plant (potted in sand mixture) was transferred into the water column. Hydrilla plants were selected for uniformity and length of shoot growth (approx 15 cm). Plants were allowed to equilibrate in the columns for 24 hrs prior to herbicide treatment. Experimental treatments included an untreated control, and imazamox at 50 and 100 ppb of actual acid equivalent of herbicide. Treatments were applied to water columns by the use of a pipette. Amount of herbicide applied was based on the total volume of the cylinders (4000 ml). After initial herbicide treatment, the water columns were gently stirred to ensure uniform distribution. Treatments were arranged as a completely random design with 3 replications. Each cylinder was considered the experimental unit. Greenhouse conditions were maintained at 24/18° C. (day/night) cycle for the duration of the experiment. Natural day length was supplemented with halogen lighting to provide a 14 h photoperiod. Water level in the cylinders was periodically checked and maintained at the 4000 ml level for the duration of the study. After 11 weeks of exposure, Hydrilla shoot lengths were measured to ascertain herbicide effects.

Question: With `COCc1cnc(C2=NC(C)(C(C)C)C(=O)N2)c(C(=O)O)c1` (racemic) [Imazamox, (RS)-2-(4-isopropyl-4-methyl-5-oxo-2-imidazolin-2-yl)-5-methoxymethylnicotinic acid] as the compound, how does the “effect on the growth of Hydrilla” value (after the exposure period (11 weeks)) read?
Answer: significant effect

Question: What about the visual symptomology (after the exposure period (11 weeks), intensity tended to be rate responsive) of the same compound?
Answer: reduction in plant vigour, chlorosis and reduction of internodal length

Question: What about the “Hydrilla Shoot Length” value (rate 50 ppb) of the same compound?
Answer: 18.5 cm

Question: And the “Hydrilla Shoot Length” value (rate 100 ppb)?
Answer: 12.3 cm
